These results are taken from publication PMC8453745, “Human Mass Balance and Metabolite Profiling of [^14C]‐Pamiparib, a Poly (ADP‐Ribose) Polymerase Inhibitor, in Patients With Advanced Cancer” (Clinical Pharmacology in Drug Development, 2021).

One data set concerns the target T1, CYP2C8 (Homo sapiens, UniProt P10632).
T1 construct: tissue Corning (Woburn, New York); host or cells: pooled human liver microsomes
T1 sequence (P10632 1-490): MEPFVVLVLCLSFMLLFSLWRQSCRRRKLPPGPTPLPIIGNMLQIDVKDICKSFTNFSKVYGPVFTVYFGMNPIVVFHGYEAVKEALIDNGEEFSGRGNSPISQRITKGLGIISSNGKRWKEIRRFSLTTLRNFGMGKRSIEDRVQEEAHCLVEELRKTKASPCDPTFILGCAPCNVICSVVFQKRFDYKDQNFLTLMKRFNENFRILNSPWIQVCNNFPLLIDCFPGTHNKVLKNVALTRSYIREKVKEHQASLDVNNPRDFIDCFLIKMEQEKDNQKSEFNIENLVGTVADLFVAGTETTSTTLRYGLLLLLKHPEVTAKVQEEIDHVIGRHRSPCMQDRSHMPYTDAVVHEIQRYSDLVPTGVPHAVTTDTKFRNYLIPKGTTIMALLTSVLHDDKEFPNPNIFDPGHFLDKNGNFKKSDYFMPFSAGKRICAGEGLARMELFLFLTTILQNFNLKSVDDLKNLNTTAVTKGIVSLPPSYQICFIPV
In words: CYP450 phenotyping in HLMs with CYP2C8 inhibitor montelukast. The format is in vitro ADME. The following applies: 90‐minute HLM incubation with CYP2C8 inhibitor montelukast (16 μM). As for the experimental part:
(§1) Metabolic stability in human liver microsomes (HLMs) and cytochrome P450 (CYP450) phenotyping assays were conducted in 3D BioOptima (Suzhou, China) using validated methodology, [13] to determine the intrinsic clearance and enzymes responsible for metabolism of pamiparib. HLMs for microsome stability was from BD Biosciences (Woburn, New York). For phenotyping, HLMs and recombinant P450 (rCYP) were from Corning (Woburn, New York). Pamiparib (1 μM) was incubated with pooled HLM (0.5 mg/mL), NADPH (1 mM), and MgCl2 (3 mM) terminated at 0, 5, 15, 30, 60, and 90 minutes. The intrinsic clearance was calculated as 0.693/(t1/2 × HLM concentration), where t1/2 is the half‐life of pamiparib determined in HLMs. For phenotyping in HLMs, pamiparib (1 μM) was incubated in the absence or presence of isoform‐selective inhibitors: 0.2 μM α‐naphthoflavone for CYP1A2, 2 μM clopidogrel for CYP2B6, 16 μM montelukast for CYP2C8, 10 μM sulfaphenazole for CYP2C9, 30 μM nootkatone for CYP2C19, 2 μM quinidine for CYP2D6, and 1 μM ketoconazole for CYP3A. The following isoform‐selective probe substrates served as positive controls: 40 μM phenacetin for CYP1A2, 100 μM bupropion for CYP2B6, 2 μM amodiaquine for CYP2C8, 5 μM diclofenac for CYP2C9, 40 μM S‐mephenytoin for CYP2C19, 5 μM dextromethorphan for CYP2D6, and 2 μM midazolam for CYP3A4. […] Pamiparib, M1, and M2 were analyzed by LC‐MS/MS.

For data set [1], the system named is Chinese hamster ovary cells. The arrangement: method as in data on file. The following applies: in vitro chromosomal aberration assay, CHO cells; ref data on file; cited from earlier work.
Data set [2] is described as follows: unchanged pamiparib in urine and renal clearance (LC‐MS/MS). The format is in vivo, human. As for the experimental part: Total radioactivity was analyzed at Covance Laboratories (Harrogate, North Yorkshire, UK), and metabolite profiling was conducted at Covance Laboratories (Madison, Wisconsin). Determination of pamiparib concentrations in plasma and total radioactivity in plasma and whole blood was performed predose and 0.25, 0.5, 1, 1.5, 2, 2.5, 3, 6, 12, 24, 48, 72, 96, 120, and 144 hours postdose. Pamiparib concentrations in plasma and urine were determined at Covance Laboratories (Salt Lake City, Utah) with validated liquid chromatography‐tandem mass spectrometry (LC‐MS/MS) methods.
An aliquot of human plasma (25 μL) containing dipotassium ethylenediaminetetraacetic acid as anticoagulant or urine (25 μL) was added with the internal standard (20.0 μL of 400 ng/mL BGB‐326) in water:ACN (50:50 v/v) followed by the addition of water:ACN (50:50 v/v, 20.0 μL). […]
Standard PK parameters of pamiparib in plasma as well as total radioactivity in blood and plasma were calculated with noncompartmental methods with Phoenix WinNonlin (version 8.1). Area under the concentration‐time curve (AUC) from time 0 to infinity (AUC0‐∞), AUC from time 0 to last quantifiable concentration (AUC0‐t), Cmax, time postdose at Cmax (tmax), t1/2, and apparent total clearance (CL/F) were calculated. Renal clearance (CLR) was calculated as Ae/AUC, where Ae was the amount of drug excreted in urine.

A further data set concerns CYP3A. In words: CYP450 phenotyping in HLMs with CYP3A inhibitor ketoconazole. It is filed as in vitro ADME, human. The following applies: 90‐minute HLM incubation with CYP3A4 inhibitor ketoconazole (1 μM). As for the experimental part: as §1

As to `C[C@]12CCCN1CC1=NNC(=O)c3cc(F)cc4[nH]c2c1c34` [Pamiparib], the pamiparib remaining worked out at 82.9% on CYP2C8 and 63.1% in the data set with CYP3A. Besides, the clastogenic activity entry in data set [1] is on record as “clastogenic activity”. In addition, in data set [2] (LC‐MS/MS, over the 192‐hour study), the “cumulative percent of pamiparib excreted unchanged in urine, geometric mean” value was “≈ 1.7 % of the administered dose”. The CL renal in data set [2] (human, urine and plasma, oral, 60 mg, calculated as Ae/AUC, read-out: renal clearance, geometric mean (converted)) is 0.623 mL/min.
